# Laboratory results as given in patent US12378211B2, “Carbonic anhydrase inhibitors and antibiotics against multidrug resistant bacteria” (Purdue Research Foundation, priority 2018, dated 2025).
# Read-outs that look alike come from different tables or passages of the source.
# Key:
# [1] = tested on: Enterococcus faecalis—S613 HM-334; test: MIC, broth microdilution in TSB; assay type: cell-based; details: TSB
# In short: (§1)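 Overnight 37° C agar cultures → 0.5 McFarland → ~5×10^5 CFU/mL in broth; compounds serially diluted; aerobic 37° C, 18-20 h; endpoint is lowest concentration without visible growth.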
# [2] = tested on: Enterococcus faecium E417-HM-965; test: MIC, broth microdilution in TSB; assay type: cell-based; details: TSB
# In short: as §1
# [3] = tested on: Enterococcus faecium Patient #2-1-NR-31909; test: MIC, broth microdilution in TSB; assay type: cell-based; details: TSB
# In short: as §1
# [4] = tested on: Enterococcus faecium Patient #3-1 NR-31912; test: MIC, broth microdilution in TSB; assay type: cell-based; details: TSB
# In short: as §1
# [5] = tested on: Enterococcus fecalis Strain MMH594-NR31975; test: MIC, broth microdilution in TSB; assay type: cell-based; details: TSB
# In short: as §1
# [6] = tested on: Enterococcus fecalis Strain SF 24397 NR31970; test: MIC, broth microdilution in TSB; assay type: cell-based; details: TSB
# In short: as §1
# [7] = tested on: Enterococcus fecalis Strain SF 28073-NR31972; test: MIC, broth microdilution in TSB; assay type: cell-based; details: TSB
# In short: as §1
# [8] = tested on: Enterococcus fecalis Strain SF24413 NR31971; test: MIC, broth microdilution in TSB; assay type: cell-based; details: TSB
# In short: as §1
# [9] = tested on: MRSA NRS 384 (MRSA USA300); test: MIC against Staphylococci, broth microdilution; assay type: cell-based, Staphylococcus aureus; details: TSB
# In short: (§2)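 CLSI broth microdilution in tryptone soy broth, inoculum about 5×10^5 CFU/mL from overnight agar cultures at 0.5 McFarland, with serially diluted compound. Plates were incubated aerobically at 37° C for 18-20 h. MIC was the lowest concentration with no visible growth.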
# [10] = tested on: Staphylococcus epidermidis NRS 101; test: MIC against Staphylococci, broth microdilution; assay type: cell-based; details: TSB
# In short: as §2
# [11] = tested on: Bacteroides dorei—CL02T12C06 HM-719; test: MIC against human normal gut microbiota; assay type: cell-based; details: BHIS broth, anaerobic, 48 hours
# In short: (§3)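 Broth microdilution: 0.5 McFarland suspensions in PBS diluted to ~5×10^5 CFU/ml, BHIS broth for Bacteroides/Bifidobacterium, MRS broth for Lactobacillus. Serial compound dilutions, 48 h, 37° C; anaerobic vs 5% CO2 respectively.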
# [12] = tested on: Bacteroides fragilis—CL07T00C01 HIM-709; test: MIC against human normal gut microbiota; assay type: cell-based; details: BHIS broth, anaerobic, 48 hours
# In short: as §3
# [13] = tested on: Bifidobacterium breve—JCP7499 HIM 1120; test: MIC against human normal gut microbiota; assay type: cell-based; details: BHIS broth, anaerobic, 48 hours
# In short: as §3
# [14] = tested on: Bifidobacterium longum subsp. Longum—44B HM 845; test: MIC against human normal gut microbiota; assay type: cell-based; details: BHIS broth, anaerobic, 48 hours
# In short: as §3
# [15] = tested on: Lactobacillus casei ATCC 334; test: MIC against human normal gut microbiota; assay type: cell-based; details: MRS broth, 5% CO2, 48 hours
# In short: as §3
# [16] = tested on: Lactobacillus gasseri EX336960VC03 HIM-400; test: MIC against human normal gut microbiota; assay type: cell-based; details: MRS broth, 5% CO2, 48 hours
# In short: as §3
# [17] = tested on: Mutant-4 of Enterococcus fecalis NR 31975; test: microbe, parasite or virus in culture; assay type: cell-based
# [18] = tested on: Mutant-6 of Enterococcus fecalis NR 31975; test: microbe, parasite or virus in culture; assay type: cell-based
# [19] = tested on: Mutant-7 of Enterococcus fecalis NR 31975; test: microbe, parasite or virus in culture; assay type: cell-based
# [20] = tested on: Mutant-8 of Enterococcus fecalis NR 31975; test: microbe, parasite or virus in culture; assay type: cell-based
# [21] = tested on: Mutant-9 of Enterococcus fecalis NR 31975; test: microbe, parasite or virus in culture; assay type: cell-based
# [22] = tested on: Mutant-11 of Enterococcus fecalis NR 31975; test: microbe, parasite or virus in culture; assay type: cell-based
# [23] = tested on: Mutant-13 of Enterococcus fecalis NR 31975; test: microbe, parasite or virus in culture; assay type: cell-based
# [24] = tested on: Mutant-14 of Enterococcus fecalis NR 31975; test: microbe, parasite or virus in culture; assay type: cell-based
# [25] = tested on: Mutant-15 of Enterococcus fecalis NR 31975; test: microbe, parasite or virus in culture; assay type: cell-based
# [26] = Enterococcus, Table 1, read-out: MIC
# [27] = Enterococcus, Table 7, read-out: MIC in TSB
# [28] = Enterococcus faecium, E417HM965, Table 1, read-out: MIC
# [29] = Enterococcus faecium, E417HM965, Table 7, read-out: MIC in TSB
# [30] = Enterococcus faecium, Table 1, read-out: MIC
# [31] = Enterococcus faecium, Table 7, read-out: MIC in TSB
# [32] = Staphylococcus aureus, read-out: MIC
# [33] = Staphylococcus epidermidis, NRS101, read-out: MIC
# [34] = Bifidobacterium longum, read-out: MIC
# [35] = Lacticaseibacillus casei, ATCC334, read-out: MIC
# [36] = Lactobacillus gasseri, read-out: MIC
compound,measurement,setting,value
NS(=O)(=O)c1nnc(NC(=O)CCC2CCCC2)s1 [CAI0015],MIC,[1]; Table 1,0.125 µg/mL
same,MIC in TSB,[1]; Table 7,0.06 µg/mL
same,MIC,[2]; Table 1,0.25 µg/mL
same,MIC in TSB,[2]; Table 7,0.06 µg/mL
same,MIC,[3]; Table 1,0.125 µg/mL
same,MIC in TSB,[3]; Table 7,0.06 µg/mL
same,MIC,[4]; Table 1,1 µg/mL
same,MIC in TSB,[4]; Table 7,0.125 µg/mL
same,MIC,[5]; Table 1,0.06 µg/mL
same,MIC in TSB,[5]; Table 7,0.06 µg/mL
same,MIC,[6]; Table 1,0.125 µg/mL
same,MIC in TSB,[6]; Table 7,0.06 µg/mL
same,MIC,[7]; Table 1,0.125 µg/mL
same,MIC in TSB,[7]; Table 7,0.06 µg/mL
same,MIC,[8]; Table 1,0.06 µg/mL
same,MIC in TSB,[8]; Table 7,0.06 µg/mL
same,MIC,[9],>64 µg/mL
same,MIC,[10],>64 µg/mL
same,MIC,[11],>64 µg/mL
same,MIC,[12],>64 µg/mL
same,MIC,[13],>64 µg/mL
same,MIC,[14],>64 µg/mL
same,MIC,[15],>64 µg/mL
same,MIC,[16],>64 µg/mL
same,MIC,[17]; Mutant-4,1 µg/mL
same,MIC,[18]; Mutant-6,1 µg/mL
same,MIC,[19]; Mutant-7,0.25 µg/mL
same,MIC,[20]; Mutant-8,2 µg/mL
same,MIC,[21]; Mutant-9,1 µg/mL
same,MIC,[22]; Mutant-11,2 µg/mL
same,MIC,[23]; Mutant-13,1 µg/mL
same,MIC,[24]; Mutant-14,1 µg/mL
same,MIC,[25]; Mutant-15,1 µg/mL
"CC(=O)Nc1nnc(S(N)(=O)=O)s1 [Acetazolamide, reference compound]",MIC,[1]; [26],2 µg/mL
same,MIC,[1]; [27],2 µg/mL
same,MIC,[2]; [28],2 µg/mL
same,MIC,[2]; [29],2 µg/mL
same,MIC,[3]; [30],2 µg/mL
same,MIC,[3]; [31],2 µg/mL
same,MIC,[4]; [30],2 µg/mL
same,MIC,[4]; [31],2 µg/mL
same,MIC,[5]; [26],4 µg/mL
same,MIC,[5]; [27],4 µg/mL
same,MIC,[6]; [26],2 µg/mL
same,MIC,[6]; [27],2 µg/mL
same,MIC,[7]; [26],4 µg/mL
same,MIC,[7]; [27],4 µg/mL
same,MIC,[8]; [26],4 µg/mL
same,MIC,[8]; [27],4 µg/mL
same,MIC,[9]; [32],> 64 µg/mL
same,MIC,[10]; [33],> 64 µg/mL
same,MIC,"[11]; Bacteroides, read-out: MIC",> 64 µg/mL
same,MIC,"[12]; Bacteroides, read-out: MIC",> 64 µg/mL
same,MIC,"[13]; Bifidobacterium, read-out: MIC",> 64 µg/mL
same,MIC,[14]; [34],> 64 µg/mL
same,MIC,[15]; [35],> 64 µg/mL
same,MIC,[16]; [36],> 64 µg/mL
same,MIC,[17]; Enterococcus,32 µg/mL
same,MIC,[18]; Enterococcus,32 µg/mL
same,MIC,[19]; Enterococcus,16 µg/mL
same,MIC,[20]; Enterococcus,32 µg/mL
same,MIC,[21]; Enterococcus,16 µg/mL
same,MIC,[22]; Enterococcus,16 µg/mL
same,MIC,[23]; Enterococcus,32 µg/mL
same,MIC,[24]; Enterococcus,32 µg/mL
same,MIC,[25]; Enterococcus,32 µg/mL
"CC(C)=CC(=O)Nc1nnc(S(N)(=O)=O)s1 [CAI0016, 3-Methyl-N-(5-sulfamoyl-1,3,4-thiadiazol-2-yl) but-2-enamide]",MIC,[1]; Table 1,0.5 µg/mL
same,MIC in TSB,[1]; Table 7,0.25 µg/mL
same,MIC,[2]; Table 1,0.25 µg/mL
same,MIC,[3]; Table 1,0.5 µg/mL
same,MIC in TSB,[3]; Table 7,0.25 µg/mL
same,MIC,[4]; Table 1,1 µg/mL
same,MIC in TSB,[4]; Table 7,0.5 µg/mL
same,MIC,[5]; Table 1,0.5 µg/mL
same,MIC in TSB,[5]; Table 7,0.25 µg/mL
same,MIC,[6]; Table 1,0.5 µg/mL
same,MIC in TSB,[6]; Table 7,0.25 µg/mL
same,MIC,[7]; Table 1,0.5 µg/mL
same,MIC in TSB,[7]; Table 7,0.5 µg/mL
same,MIC,[8]; Table 1,0.5 µg/mL
same,MIC in TSB,[8]; Table 7,0.5 µg/mL
same,MIC,[9],>64 µg/mL
same,MIC,[10],>64 µg/mL
same,MIC,[11],>64 µg/mL
same,MIC,[12],>64 µg/mL
same,MIC,[13],>64 µg/mL
same,MIC,[14],>64 µg/mL
same,MIC,[15],>64 µg/mL
same,MIC,[16],>64 µg/mL
same,MIC,[17]; Mutant-4,8 µg/mL
same,MIC,[18]; Mutant-6,16 µg/mL
same,MIC,[19]; Mutant-7,4 µg/mL
same,MIC,[20]; Mutant-8,4 µg/mL
same,MIC,[21]; Mutant-9,4 µg/mL
same,MIC,[22]; Mutant-11,4 µg/mL
same,MIC,[23]; Mutant-13,4 µg/mL
same,MIC,[24]; Mutant-14,4 µg/mL
same,MIC,[25]; Mutant-15,8 µg/mL
"CC(C)(C)C(=O)Nc1nnc(S(N)(=O)=O)s1 [CAI0010, N-(5-Sulfamoyl-1,3,4-thiadiazol-2-yl) pivalamide]",MIC,[1]; [26],0.5 µg/mL
same,MIC,[1]; [27],0.125 µg/mL
same,MIC,[2]; [28],0.5 µg/mL
same,MIC,[2]; [29],0.25 µg/mL
same,MIC,[3]; [30],0.5 µg/mL
same,MIC,[3]; [31],0.125 µg/mL
same,MIC,[4]; [30],1 µg/mL
same,MIC,[4]; [31],0.25 µg/mL
same,MIC,[5]; [26],1 µg/mL
same,MIC,[5]; [27],0.25 µg/mL
same,MIC,[6]; [26],0.5 µg/mL
same,MIC,[6]; [27],0.25 µg/mL
same,MIC,[7]; [26],0.5 µg/mL
same,MIC,[7]; [27],0.5 µg/mL
same,MIC,[8]; [26],0.5 µg/mL
same,MIC,[8]; [27],0.25 µg/mL
same,MIC,[9]; [32],> 64 µg/mL
same,MIC,[10]; [33],> 64 µg/mL
same,MIC,"[11]; Bacteroides, read-out: MIC",> 64 µg/mL
same,MIC,"[12]; Bacteroides, read-out: MIC",> 64 µg/mL
same,MIC,"[13]; Bifidobacterium, read-out: MIC",> 64 µg/mL
same,MIC,[14]; [34],> 64 µg/mL
same,MIC,[15]; [35],> 64 µg/mL
same,MIC,[16]; [36],> 64 µg/mL
same,MIC,[17]; Enterococcus,8 µg/mL
same,MIC,[18]; Enterococcus,16 µg/mL
same,MIC,[19]; Enterococcus,4 µg/mL
same,MIC,[20]; Enterococcus,8 µg/mL
same,MIC,[21]; Enterococcus,8 µg/mL
same,MIC,[22]; Enterococcus,4 µg/mL
same,MIC,[23]; Enterococcus,4 µg/mL
same,MIC,[24]; Enterococcus,4 µg/mL
same,MIC,[25]; Enterococcus,4 µg/mL
